The target of experiment [1] is T1, TB14 (UniProt C9ZDC6+P14779).
T1 construct: 14-aa linker […]; BM3R, reductase domain of P450BM3 (CYP102A1), fusion partner after the linker; inferred from Ni-NTA purification and the pET28b vector; made in house; host or cells: E. coli BL21 (DE3)-GOLD, pET28b-TxtE-BM3R
As to the kind of experiment: Binding affinities of Trp analogues toward TB14 (spectral shift titration). The note with it: for Kd: read-out: TB14 Kd, 1.5 μM enzyme, 25 mM Tris-HCl, pH 8.0; for Interaction with TB14 in spectroscopic analysis (in words): Type I spectral shift. On the procedure:
(§1) The ferric heme of enzymes was then saturated with carbon monoxide (Airgas) through bubbling and the spectra of the saturated enzyme solutions were recorded. Immediately, sodium dithionite solution (30 μL, 0.5 M) was added to reduce ferric ion, and reduced spectra were taken subsequently. CO reduced difference spectra of all enzymes were created by subtracting the CO binding spectra from the reduced spectra. Data were further analyzed by Excel. […] Not more than 10 μl of substrate stock solutions prepared in the above buffer were added to the sample cuvette with an interval of 0.5 μl, and the spectra were recorded from 300 nm to 500 nm each time. The equal volume of buffer was added to the reference cuvette. The changes in absorbance (AA) were determined by subtracting the absorbance at ˜420 nm from that at ˜390 nm. Data were then fitted to the equation of ΔA=ΔAmax[L]/(Kd+[L]) using GraphPad Prism 4.

For experiment [2], the target named is T2, TxtE (Streptomyces scabiei, UniProt C9ZDC6). In words: biochemical. The experiment is classed as binding, S. scabies. Set-up: inferred from Ni-NTA purification and the pET28b vector; made in house; host or cells: E. coli BL21 (DE3)-GOLD, pET28b. The note with it: for Interaction with TxtE in spectroscopic analysis (in words): Type I spectral shift. On the procedure: as §1

The target in experiment [3] is T1, TB14. In words: Nitration of Trp and its analogues by TB14 (45 min, HPLC). The experiment is classed as biochemical. The note with it: FIG. 8; for Nitration activity of TB14 toward the substrate (in words): 0.5 mM substrate, 45 min. On the procedure:
(§2) The reactions were prepared and then incubated at 20° C., 300 rpm for 45 minutes. All experiments were repeated at least three times.
(§3) After centrifugation, 10 μl solutions were analyzed by HPLC. […] All reactions were independently repeated at least three times. […] All experiments were performed at least in triplicate.

In experiment [4] the target is T2, TxtE. Format: biochemical, S. scabies. Set-up: inferred from Ni-NTA purification and the pET28b vector; made in house. To be noted: 0.5 mM substrate, 45 min, FIG. 8. As to the method:
as §2, §3

In experiment [5] the target is T3, TB14 (UniProt C9ZDC6).
T3 construct: 14-aa linker […]; BM3R, reductase domain of P450BM3 (CYP102A1), fusion partner after the linker; inferred from Ni-NTA purification and the pET28b vector; made in house; host or cells: E. coli BL21 (DE3)-GOLD, pET28b-TxtE-BM3R
As to the kind of experiment: Binding affinities of Trp analogues toward TB14 (spectral shift titration). To be noted: 1.5 μM enzyme, 25 mM Tris-HCl, pH 8.0. As to the method:
as §1

[6] abbreviates: read-out: TxtE Kd, 1.5 μM enzyme, 25 mM Tris-HCl, pH 8.0.

The results in this text go back to US11078467B2 (University of Florida Research Foundation, Incorporated, priority 2016, dated 2021).

“Also recorded” adds a separate entry of the source. Like-named read-outs stand apart in the source and are kept apart here.

What is called Kd is the free concentration of one partner at which half of the binding sites on the other are occupied at equilibrium, for simple one-to-one binding. On to `NC(Cc1c[nH]c2cccc(F)c12)C(=O)O` (racemic) [Example 4-F-Trp, 4-F-DL-Trp], for which the Kd on TB14 [1] came out at 175 ± 12.9 µM; at TxtE [2] (setting [6]) it was 189 ± 11.1 µM.

`Cc1cccc2[nH]cc(CC(N)C(=O)O)c12` (racemic) [Example 4-Me-DL-Trp]: the “Interaction with TB14 in spectroscopic analysis (in words)” value on TB14 [1] is on record as “more tightly than 4-F-DL-Trp”. Besides, at TB14 [3], the “Nitration activity of TB14 toward the substrate (in words)” value is on record as “good activity” and the “Nitration by TB14 favoured over 4-F-DL-Trp” value is “about 8 times”. The “Nitration activity of TxtE toward the substrate (in words)” value on TxtE [4] is listed as “good activity”. Also, the “Interaction with TxtE in spectroscopic analysis (in words)” value at TxtE [2] is on record as “more tightly than 4-F-DL-Trp”.

Regarding `Cc1cccc2[nH]cc(CC(N)C(=O)O)c12` (racemic) [Example 4-Me-Tr, 4-Me-DL-Tryptophan], the Kd on TB14 [5] was 13.5 ± 0.98 µM; on TxtE [2] it was 9.58 ± 0.36 µM.

For `Cc1ccc2[nH]cc(CC(N)C(=O)O)c2c1` (racemic) [Example 5-Me-Trp, 5-Me-DL-Trp], the Kd on TB14 [5] worked out at 29.9 ± 1.03 µM; at TxtE [2], 34.7 ± 0.99 µM. On TB14 [3], the “Nitration activity of TB14 toward the substrate (in words)” value was “good activity”. Further, on TxtE [4], the “Nitration activity of TxtE toward the substrate (in words)” value is reported as “good activity”.

For the molecule `COc1ccc2[nH]cc(CC(N)C(=O)O)c2c1` (racemic) [Example 5-MeO-Trp, 5-MeO-DL-Trp], the Kd at TB14 [5] was found to be 25.8 ± 1.84 µM; at TxtE [2] it was 29.1 ± 1.16 µM.

Consider `N[C@@H](Cc1c[nH]c2cc(F)ccc12)C(=O)O` (racemic) [Example 6-F-Trp, 6-F-DL-Trp], for which the Kd at TB14 [1] came to 65.3 ± 4.49 µM; at TxtE [2] (setting [6]) it was 73.4 ± 6.06 µM. Further, on TB14 [3], the “Nitration activity of TB14 toward the substrate (in words)” value is reported as “good activity”. The “Nitration activity of TxtE toward the substrate (in words)” value at TxtE [4] is “good activity”.

In the case of `Cc1cccc2c(CC(N)C(=O)O)c[nH]c12` (racemic) [Example 7-Me-Trp, 7-Me-DL-Trp], the Kd at TB14 [5] was found to be 10.6 ± 0.75 µM; on TxtE [2], 12.9 ± 0.99 µM.

On to `CC(N)(Cc1c[nH]c2ccccc12)C(=O)O` (racemic) [α-Me-Trp, α-Me-DL-Trp], for which the results for the Kd at TB14 [5] and on TxtE [2] were 94.7 ± 8.52 µM and 100 ± 4.3 µM, respectively.

`O=C(O)C1Cc2c([nH]c3ccccc23)CN1` (stereo not drawn) [2,3,4,9-Tetrahydro-1H-β-carboline-3-carboxynate]: the Kd on TB14 [5] is 731 ± 86 µM; at TxtE [2] it was 579 ± 44.4 µM.

`O=C(O)Cc1c[nH]c2ccccc12` [3-Indoleacetic acid] showed a Kd on TxtE [2] of over 17000 µM.

Consider `N[C@@H](Cc1c[nH]c2ncccc12)C(=O)O` [7-Azatryptophan], for which the Kd came to 25.5 ± 0.58 µM on TB14 [5] and 16.8 ± 0.28 µM at TxtE [2] (setting [6]).

On to `N[C@H](Cc1c[nH]c2ccccc12)C(=O)O` [D-Trp], for which the Kd was 470 ± 25.3 µM at TB14 [5] and 432 ± 17.2 µM on TxtE [2].

With `N[C@@H](Cc1c[nH]c2ccc(F)cc12)C(=O)O` [Example 5-F-L-Trp, 5-F-L-Trp], the Kd at TB14 [1] is 77.5 ± 5.74 µM; on TxtE [2] (setting [6]), 84.2 ± 4.37 µM. The “Nitration activity of TB14 toward the substrate (in words)” value on TB14 [3] was “good activity; also recorded: comparable to Trp”. Further, the “Nitration activity of TxtE toward the substrate (in words)” value on TxtE [4] is reported as “good activity; also recorded: best substrate of TxtE”.

Consider `N[C@@H](Cc1c[nH]c2ccc(O)cc12)C(=O)O` [Example 5-OH-L-Trp, 5-OH-L-Trp], for which the Kd on TB14 [5] turned out to be 453 ± 15.5 µM; at TxtE [2], 341 ± 26.4 µM.

Turning to `O=C(O)c1c[nH]c2ccccc12` [Indole-3-carboxylic acid], the Kd on TxtE [2] is over 9000 µM.

`O=C(O)C(O)Cc1c[nH]c2ccccc12` (stereo not shown) [Indole-3-lactic acid] showed a Kd at TxtE [2] of over 7000 µM.

With `O=C(O)C(=O)Cc1c[nH]c2ccccc12` [Indole-3-pyruvic acid], the results for the Kd at TB14 [1] and on TxtE [2] (setting [6]) were 478 ± 31.6 µM and 386 ± 42.5 µM, respectively.

With `N[C@@H](Cc1c[nH]c2ccccc12)C(=O)O` [L-Trp, L-tryptophan], the results for the Kd at TB14 [5] and at TxtE [2] (setting [6]) were 17.4 ± 0.95 µM and 24.8 ± 1.11 µM, respectively.

Consider `N[C@H](CO)Cc1c[nH]c2ccccc12` [L-tryptophanol], for which the Kd was 280 ± 43.2 µM at TB14 [5] and 221 ± 32.4 µM at TxtE [2].

For the molecule `NCCc1c[nH]c2ccc(O)cc12` [Serotonin], the results for the Kd on TB14 [1] and on TxtE [2] (setting [6]) were 310 ± 38.5 µM and 322 ± 31.4 µM, respectively.

Take `N[C@@H](Cc1c[nH]c2ccccc12)C(=O)O` [Trp]: at TB14 [3], the “Nitration activity of TB14 toward the substrate (in words)” value was “nitrated”. Further, on TxtE [4], the “Nitration activity of TxtE toward the substrate (in words)” value is “nitrated”.

Take `NCCc1c[nH]c2ccccc12` [Tryptamine]: the results for the Kd at TB14 [1] and at TxtE [2] (setting [6]) were 59.8 ± 7.88 µM and 68.4 ± 6.19 µM, respectively.

Turning to `c1ccc2[nH]ccc2c1` [indole], the “Interaction with TB14 in spectroscopic analysis (in words)” value on TB14 [1] is recorded as “no detectable level of interaction”. On TxtE [2], the “Interaction with TxtE in spectroscopic analysis (in words)” value is “no detectable level of interaction”.
